Data as given in PubChem BioAssay AID206 (DTP/NCI, 2004).
Values joined by “and” are separate entries in the source; they are usually repeats but may differ in a detail not shown here. Equal values may be shown once. Records with an inconclusive call do not appear.

Tested on: nude mice, HT29 intrarenal xenograft, tumor weight T/C
Assay: NCI In Vivo Anticancer Drug Screen. Data for tumor model HT29;CX-1 Human Adenocarcinoma (MER+) (intrarenal inoculation) in NU/NU Swiss (nude) mice
Settings: endpoint: mean tumor weight change, higher = larger tumour
Summary of the method: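 Mice with transplanted tumors are dosed with compound while controls get vehicle only. Survival or tumor burden is then assessed per group, and the treated value is expressed relative to control.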

[1] = dose: 75.0 mg/kg/injection, schedule: Q04DX004 (sc), vehicle: saline with Tween-80
[2] = dose: 150.0 mg/kg/injection, schedule: Q04DX004 (sc), vehicle: saline with Tween-80
[3] = dose: 300.0 mg/kg/injection, schedule: Q04DX004 (sc), vehicle: saline with Tween-80
[4] = dose: 600.0 mg/kg/injection, schedule: Q04DX004 (sc), vehicle: saline with Tween-80
[5] = dose: 1200.0 mg/kg/injection, schedule: Q04DX004 (sc), vehicle: saline with Tween-80
[6] = dose: 2400.0 mg/kg/injection, schedule: Q04DX004 (sc), vehicle: saline with Tween-80
[7] = dose: 75.0 mg/kg/injection, schedule: Q04DX004 (sc), vehicle: Klucel (hydroxypropylcellulose) (HPC)
[8] = dose: 300.0 mg/kg/injection, schedule: Q04DX004 (sc), vehicle: Klucel (hydroxypropylcellulose) (HPC)
[9] = dose: 25.0 mg/kg/injection, schedule: Q04DX004 (sc), vehicle: suspension in saline
[10] = dose: 25.0 mg/kg/injection, schedule: Q04DX004 (sc), vehicle: saline with Tween-80
[11] = dose: 50.0 mg/kg/injection, schedule: Q04DX004 (sc), vehicle: saline with Tween-80
[12] = dose: 100.0 mg/kg/injection, schedule: Q04DX004 (sc), vehicle: saline with Tween-80

CC(=O)Nc1cscc1NC(C)=O
T/C [1]: 84 % of control
T/C [2]: 81 % of control
T/C [3]: 155 % of control
T/C [4]: 155 % of control
T/C [5]: 82 % of control
T/C [6]: 118 % of control

CCCC(=O)Nc1ncnc2c1ncn2C1OC2COP(=O)(O)OC2C1OC(=O)CCC (stereo not drawn)
T/C (dose: 100.0 mg/kg/injection, schedule: Q01DX010 (sc), vehicle: saline): 106 % of control
T/C (dose: 200.0 mg/kg/injection, schedule: Q01DX010 (sc), vehicle: saline): 18 % of control
T/C (dose: 400.0 mg/kg/injection, schedule: Q01DX010 (sc), vehicle: saline): 80 % of control
T/C (dose: 800.0 mg/kg/injection, schedule: Q01DX010 (sc), vehicle: saline): 44 % of control

Cc1cc(=NO)cc(C)n1O
T/C (dose: 150.0 mg/kg/injection, schedule: Q04DX004 (sc), vehicle: distilled water + alcohol): 73 % of control
T/C (dose: 300.0 mg/kg/injection, schedule: Q04DX004 (sc), vehicle: distilled water + alcohol): 80 % of control
T/C (dose: 600.0 mg/kg/injection, schedule: Q04DX004 (sc), vehicle: distilled water + alcohol): 87 % of control
T/C (dose: 1200.0 mg/kg/injection, schedule: Q04DX004 (sc), vehicle: distilled water + alcohol): 65 % of control

Oc1cc2c3c(c1)c1cc4c(cc1c[n+]3CC2)OCO4
T/C (dose: 100.0 mg/kg/injection, schedule: Q04DX004 (sc), vehicle: water): 53 % of control
T/C (dose: 200.0 mg/kg/injection, schedule: Q04DX004 (sc), vehicle: water): 61 % of control
T/C (dose: 400.0 mg/kg/injection, schedule: Q04DX004 (sc), vehicle: water): 73 % of control

COC(=O)C12OCC34C(CC5C(C)=CC(=O)C(O)C5(C)C3C(O)C1O)OC(=O)C(OC(=O)CC(C)C)C24 (stereo not drawn)
T/C (dose: 1.5 mg/kg/injection, schedule: Q04DX004 (sc), vehicle: saline + alcohol): 59 % of control
T/C (dose: 3.0 mg/kg/injection, schedule: Q04DX004 (sc), vehicle: saline + alcohol): 76 % of control

Cc1cc(N/N=C/c2ccccn2)nc2ccccc12
T/C (dose: 37.5 mg/kg/injection, schedule: Q04DX004 (sc), vehicle: Klucel (hydroxypropylcellulose) (HPC)): 101 % of control
T/C [7]: 107 % of control
T/C (dose: 150.0 mg/kg/injection, schedule: Q04DX004 (sc), vehicle: Klucel (hydroxypropylcellulose) (HPC)): 123 % of control
T/C [8]: 90 % of control

CN(C1=NS(=O)(=O)N=C(N(C)c2ccccc2)O1)c1ccccc1
T/C (dose: 225.0 mg/kg/injection, schedule: Q04DX004 (sc), vehicle: Klucel (hydroxypropylcellulose) (HPC)): 95 % of control
T/C (dose: 450.0 mg/kg/injection, schedule: Q04DX004 (sc), vehicle: Klucel (hydroxypropylcellulose) (HPC)): 153 % of control
T/C (dose: 1800.0 mg/kg/injection, schedule: Q04DX004 (sc), vehicle: Klucel (hydroxypropylcellulose) (HPC)): 168 % of control

C1=CCOCOC1
T/C (dose: 37.5 mg/kg/injection, schedule: Q04DX004 (sc), vehicle: saline with Tween-80): 69 % of control
T/C [1]: 70 % of control
T/C [2]: 68 % of control
T/C [3]: 72 % of control

NC(=O)c1ncn2c(=O)n(CCCl)nnc12
T/C [9]: 214 % of control
T/C (dose: 50.0 mg/kg/injection, schedule: Q04DX004 (sc), vehicle: suspension in saline): 72 % of control

Cc1cc2nc3c(=O)[nH]c(=O)nc-3n(CC(O)C(O)C(O)C(O)CO)c2cc1C (stereo not drawn)
T/C [4]: 94 % of control
T/C [5]: 78 % of control
T/C [6]: 90 % of control

CCN1/C(=C/C=C/C=C\C=C\c2sc3ccc4ccccc4c3[n+]2CC)Sc2ccc3ccccc3c21
T/C [10]: 85 % of control
T/C [11]: 54 % of control
T/C [12]: 123 % of control
T/C (dose: 200.0 mg/kg/injection, schedule: Q04DX004 (sc), vehicle: saline with Tween-80): 107 % of control

O=C1C2(Cl)C3(Cl)C4(Cl)C(Cl)(Cl)C5(Cl)[C@]3(Cl)C1(Cl)[C@]5(Cl)C24Cl (stereo partly drawn)
T/C [7]: 60 % of control

O=[N+]([O-])c1ccc(-n2[nH]nnc2=S)cc1
T/C (dose: 100.0 mg/kg/injection, schedule: Q04DX004 (sc), vehicle: Klucel (hydroxypropylcellulose) (HPC)): 94 % of control
T/C (dose: 200.0 mg/kg/injection, schedule: Q04DX004 (sc), vehicle: Klucel (hydroxypropylcellulose) (HPC)): 92 % of control
T/C (dose: 400.0 mg/kg/injection, schedule: Q04DX004 (sc), vehicle: Klucel (hydroxypropylcellulose) (HPC)): 96 % of control
T/C (dose: 800.0 mg/kg/injection, schedule: Q04DX004 (sc), vehicle: Klucel (hydroxypropylcellulose) (HPC)): 80 % of control

[Cl][Pt+2][Cl].[NH-]C1CCC1.[NH2-]
T/C (dose: 6.25 mg/kg/injection, schedule: Q04DX004 (sc), vehicle: suspension in saline): 54 % of control
T/C (dose: 12.5 mg/kg/injection, schedule: Q04DX004 (sc), vehicle: suspension in saline): 41 % of control
T/C [9]: 46 % of control

CO[C@H](C(=O)[C@@H](O)[C@@H](C)O)[C@@H]1Cc2cc3cc(OC4CC(OC5CC(O)C(O)C(C)O5)C(O)C(C)O4)c(C)c(O)c3c(O)c2C(=O)[C@H]1OC1CC(OC2CC(OC3CC(C)(O)C(O)C(C)O3)C(O)C(C)O2)C(O)C(C)O1 (stereo partly drawn)
T/C (dose: 0.25 mg/kg/injection, schedule: Q04DX004 (sc), vehicle: saline): 87 % of control
T/C (dose: 0.5 mg/kg/injection, schedule: Q04DX004 (sc), vehicle: saline): 53 % of control
T/C (dose: 1.0 mg/kg/injection, schedule: Q04DX004 (sc), vehicle: saline): 54 % of control
T/C (dose: 2.0 mg/kg/injection, schedule: Q01DX010 (sc), vehicle: saline): -80 % of control
T/C (dose: 2.0 mg/kg/injection, schedule: Q04DX004 (sc), vehicle: saline): 61 % of control

COc1ccc2cc1Oc1ccc(cc1)C[C@H]1c3cc(c(OC)cc3CCN1C)Oc1c(OC)c(OC)cc3c1[C@H](C2)N(C)CC3
T/C (dose: 100.0 mg/kg/injection, schedule: Q01DX010 (sc), vehicle: saline with Tween-80): 102 % of control
T/C (dose: 200.0 mg/kg/injection, schedule: Q01DX010 (sc), vehicle: saline with Tween-80): 33 % of control
T/C (dose: 400.0 mg/kg/injection, schedule: Q01DX010 (sc), vehicle: saline with Tween-80): 28 % of control
T/C (dose: 800.0 mg/kg/injection, schedule: Q01DX010 (sc), vehicle: saline with Tween-80): 27 % of control

COc1ccc(S(=O)(=O)N/N=C/C(=O)O)cc1
T/C [10]: 94 % of control
T/C [11]: 90 % of control and 102 % of control
T/C [12]: 59 % of control and 82 % of control

CCc1ccccc1N1CCN(C(=O)c2cc(OC)c(OC)c(OC)c2)CC1
T/C [8]: 57 % of control
T/C (dose: 600.0 mg/kg/injection, schedule: Q04DX004 (sc), vehicle: Klucel (hydroxypropylcellulose) (HPC)): 120 % of control
T/C (dose: 1200.0 mg/kg/injection, schedule: Q04DX004 (sc), vehicle: Klucel (hydroxypropylcellulose) (HPC)): 84 % of control

COC1C(O)CC(OC2CC(OC3CC(O[C@@H]4C(=O)c5c(cc6cc(OC7CC(OC8CC(O)C(O)C(C)O8)C(O)C(C)O7)c(C)c(O)c6c5O)C[C@H]4[C@H](OC)C(=O)[C@@H](O)[C@@H](C)O)OC(C)C3O)OC(C)C2O)OC1C (stereo partly drawn)
T/C (dose: 0.75 mg/kg/injection, schedule: Q01DX010 (sc), vehicle: saline): 27 % of control and 50 % of control
T/C (dose: 1.5 mg/kg/injection, schedule: Q01DX010 (sc), vehicle: saline): 29 % of control and 41 % of control

C=C1C(C)C2C(Cc3ccccc3)NC(=O)C23C(OC(C)=O)/C=C/C(C)(O)CC(C)C/C=C/C3C1O (stereo not drawn)
T/C (dose: 3.13 mg/kg/injection, schedule: Q04DX004 (sc), vehicle: distilled water + Tween-80): 42 % of control
T/C (dose: 6.25 mg/kg/injection, schedule: Q04DX004 (sc), vehicle: distilled water + Tween-80): 124 % of control
T/C (dose: 12.5 mg/kg/injection, schedule: Q04DX004 (sc), vehicle: distilled water + Tween-80): 87 % of control
T/C (dose: 25.0 mg/kg/injection, schedule: Q04DX004 (sc), vehicle: distilled water + Tween-80): 63 % of control
